Experiments:
T. congolense IL3000 WT = experiment: In vitro drug susceptibility assay (resazurin), T. congolense; assay type: cell-based; conditions: Trypanosoma congolense, bloodstream forms, read-out: EC50 T. c. IL3000 WT
Procedure: (§1) Organisms and culture media: Only bloodstream trypomastigotes of T. b. brucei were used throughout this study. […] Parasites were cultured in vented flasks at 37 °C and 5 % CO2 atmosphere and they were passaged every 3 days. Bloodstream forms of T. congolense savannah‐type strain IL3000 were cultured in basal MEM medium, supplemented by 10 % fresh goat serum, 14 μL of β‐mercaptoethanol, 800 μL of 200 mM glutamine solution, and 10 mL of penicillin/streptomycin solution per liter of medium (pH 7.3).48 T. congolense were cultured in six‐well plates at 34 °C and 5 % CO2.
(§2) In brief, the assays were performed in 96‐well plates with 2×10^5 cells per well for T. b. brucei or 5×10^5 cells per well for T. congolense, in their respective culture media. First, 200 μL of test compounds’ solutions (400 μM, in T. brucei or T. congolense medium as appropriate) was added to the first well of each 12‐well row, from which doubling dilutions were conducted over one row per test compound. […] Fluorescence was detected using a FLUOstar Optima (BMG Labtech, Durham, NC, USA) at wavelength of 540 nm (excitation), 590 nm (emission). EC50 values were calculated by nonlinear regression using an equation for a sigmoidal dose–response curve with variable slope using Prism 5.0 (GraphPad Software Inc., San Diego, CA, USA).

T. b. brucei ISMR1 = experiment: In vitro drug susceptibility assay (resazurin), dyskinetoplastic ISMR1 strain; assay type: cell-based, Trypanosoma brucei brucei; conditions: isometamidium-resistant line
Procedure: as §1, §2

HFF cells = experiment: ATP assay on HFF cells; assay type: cell-based, human; conditions: 22 at 200 μM, oligomycin 2 μg/mL; 0, 4, 8 h
Procedure: ATP assay on T. b. brucei and HFF cells: Changes in cellular ATP levels due to the exposure of trypanosomes to the test compounds (0.5×EC50) were monitored using the Molecular Probes ATP Determination Kit (A22066, Invitrogen Detection Technologies), based on the luciferin–luciferase bioluminescent enzymatic reaction. Bloodstream trypomastigote cultures of T. brucei s427WT were incubated with and without test compound, and, at each predetermined incubation time, 10^7 cells of each sample were transferred into a microfuge tube and centrifuged at 2000×g for 10 min at 4 °C. The pellet was washed twice with 1 mL of 50 mM Tris⋅HCl (pH 7.4) containing 0.1 mM DTT, and then resuspended in 200 μL of the same buffer. […] ATP levels were quantified using the contents of the kit following the manufacturer's instructions; 90 μL of standard reaction solution was added to each well of a 96‐well plate and the background luminescence was recorded in a FLUOstar OPTIMA fluorimeter; 10 μL of each sample was then added to each well. The plate was incubated at 28 °C for 15 min and the luminescence was measured, including a standard curve with an ATP concentration ranging from 1 nM to 1 μM to allow the calculation of the ATP concentrations in each sample. The ATP content was measured at 0, 0.5, 1, 2, 4, 8 and 12 h of incubation with test sample. […]

[1] = system: T. b. brucei 427WT trypomastigotes; experiment: Growth curve / time-to-kill determination; assay type: cell-based, Trypanosoma brucei brucei; conditions: 1× EC50; over 48 h
Procedure: To determine whether 18–22 inhibited growth or cell division rather than causing cell death of T. b. brucei, cell growth curves were performed by treating 427WT trypomastigotes with concentrations corresponding to 0.5×, 1×, and 2× the EC50 value, using untreated cells as a control. Incubation with test compounds at half the EC50 (Figure 3 A) caused mostly some delayed growth phenotype, with rates increasing after 10 or 20 h. […] At double the concentration (Figure 3 C), all the hybrids cleared the culture between the 4 h and 8 h time points, with the cell populations rapidly declining between 2 and 4 h.
Untreated parasites, used as control, were grown in parallel. The cells were counted by using hemocytometer cell counter (cell count/mL×10^4) at 0, 2, 4, 8, 12, 24, 28, 32, 36, 48 h of incubation. Each experiment was performed as two independent replicates, and each sample was counted at least twice.

[2] = system: T. b. brucei 427WT trypomastigotes; experiment: Reactive oxygen species (ROS) assay (DCFH-DH); assay type: cell-based, Trypanosoma brucei brucei; conditions: incubation up to 2 h, multiples of EC50
Procedure: Reactive oxygen species (ROS) assay on T. b. brucei: The production of ROS when T. b. brucei 427WT trypomastigotes incubated with different concentration (2.5×EC50; 1.25×EC50; 0.3×EC50) of test compound was assessed using the indicator dye 2,7‐dichlorodihydrofluorescein diacetate (DCFH‐DH; Sigma–Aldrich). This assay was performed in a 96‐well black‐bottomed well plate; 200 μL of each test compound solution, at 5×EC50 in assay buffer pH 7.3, was added to the well in the first column of the plate and doubling dilutions were carried out across the row, after which 3×10^6 cell in 100 μL of assay buffer were added to each well, immediately followed by 2 μL of 1 mM DCFH‐DH, under minimal light conditions. The plates were incubated in a FLUOstar OPTIMA fluorimeter at 37 °C 5 % CO2 and the fluorescence was monitored at 485 nm for the excitation, 520 nm for the emission for 3 h, taking readings of each well every 2 min. Three wells were included in the plate as controls: 1) 3×10^6 cells per well in assay buffer without test compound; 2) 3×10^6 cells per well in assay buffer with 2 μL of 10 mM H2O2; 3) assay buffer without cells and test compound.

| Compound | EC50 (T. congolense IL3000 WT) | EC50 in ISMR1 relative to 427WT tested in parallel (T. b. brucei ISMR1) | effect on cellular ATP levels of HFF cells (HFF cells) | effect on cell growth [1] | ROS production [2] |
| --- | --- | --- | --- | --- | --- |
| O=C1C(Oc2cccc(CCCCCCCCO)c2)=CC(=O)c2c(O)cccc21 [Compound 22, 5‐Hydroxy‐2‐(3‐(8‐hydroxyoctyl)phenoxy)naphthalene‐1,4‐dione] | 43.4 ± 0.2 µM | did not show a significant increase in the EC50 values | only a very minor effect on cellular ATP levels | killed only a proportion of the cell population before stabilizing | dose‐dependently increased |
| COc1cccc2c1C(=O)C=C(Oc1cccc(CCCCCCCCO)c1)C2=O [Compound 20, 2‐(3‐(8‐Hydroxyoctyl)phenoxy)‐5‐methoxynaphthalene‐1,4‐dione] | 18.8 ± 0.2 µM | did not show a significant increase in the EC50 values |  | decreased the growth rate substantially, with a nearly trypanostatic effect over the first 12 h | dose‐dependently increased |
